For 32 molecules, IC50 results are on record in patent US20090264415A2 (priority 2004, published 2009).

Some results are limits rather than exact numbers.

The subject of the test is peripheral blood mononuclear cells (PBMC) stimulated with allogeneic PBMC or EBV-transformed human B cells (RPMI1788). The experiment in a line: Mixed lymphocyte reaction (MLR) assay. The format is cell-based. The following applies: Homo sapiens, RPMI-1788; MLR assay of example 319; read-out: MLR IC50. The procedure, abridged: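 Compounds, held as 10 mM DMSO stocks and diluted in culture medium, were added to PBMC stimulated by 30 Gy-irradiated allogeneic PBMC or RPMI1788 cells. Proliferation was read as [3H]-thymidine uptake (1 μCi, final 16 h) after 5 days at 37° C. Inhibition was derived from cpm.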
Take `Nc1nc(N2CCN(C(=O)Oc3ccc(Cl)cc3)CC2)c2nc(-c3ccc(F)cc3)ccc2n1` [Example 469, 2-amino-4-[4-(4-chlorophenoxycarbonyl)piperazin-1-yl]-6-(4-fluorophenyl)-pyrido[3,2-d]pyrimidine]: the IC50 stood at 500 nM.

For the molecule `CC(C)(Oc1ccc(Cl)cc1)C(=O)N1CCN(c2nc(N)nc3ccc(-c4ccc(F)cc4)nc23)CC1` [Example 472, 2-amino-4-{4-[2-(4-chlorophenoxy)-2-methylpropionyl]-piperazin-1-yl}-6-(4-fluorophenyl)-pyrido[3,2-d]pyrimidine], the IC50 was above 10000 nM.

Regarding `Nc1nc(N2CCN(C(=O)CCOc3ccc(Cl)cc3)CC2)c2nc(-c3ccc(F)cc3)ccc2n1` [Example 473, 2-amino-4-{4-[3-(4-chlorophenoxy)propionyl]-piperazin-1-yl}-6-(4-fluorophenyl)-pyrido[3,2-d]pyrimidine], the IC50 is 500 nM.

For `CC(Oc1ccccc1)C(=O)N1CCN(c2nc(N)nc3ccc(-c4ccc(F)cc4)nc23)CC1` (centres unmarked) [Example 474, 2-amino-4-[4-(2-phenoxypropionyl)piperazin-1-yl]-6-(4-fluorophenyl)-pyrido[3,2-d]pyrimidine], the concentration for half-maximal inhibition (IC50) is 1000 nM.

For `Nc1nc(N2CCN(CC(=O)OCc3ccc(Cl)cc3)CC2)c2nc(-c3ccc(F)cc3)ccc2n1` [Example 475, {4-[2-amino-6-(4-fluorophenyl)-pyrido[3,2-d]pyrimidin-4-yl]-piperazin-1-yl}-acetic acid 4-chloro-benzyl ester], the IC50 is 4200 nM.

For `Nc1nc(N2CCN(C(=O)CNC(=O)c3ccc(Cl)cc3)CC2)c2nc(-c3ccc(F)cc3)ccc2n1` [Example 476, N-(2-{4-[2-amino-6-(4-fluorophenyl)-pyrido[3,2-d]pyrimidin-4-yl]-piperazin-1-yl}-2-oxoethyl)-4-chlorobenzamide], the IC50 came to 60 nM.

For `Nc1nc(N2CCN(C(=O)CNC(=O)c3ccccc3)CC2)c2nc(-c3ccc(F)cc3)ccc2n1` [Example 478, N-(2-{4-[2-amino-6-(4-fluorophenyl)-pyrido[3,2-d]pyrimidin-4-yl]-piperazin-1-yl}-2-oxoethyl)benzamide], the half-maximal inhibitory concentration (IC50) was 5 nM.

For `Nc1nc(NC2CCN(C(=O)COc3ccc(Cl)cc3)CC2)c2nc(-c3ccc(F)cc3)ccc2n1` [Example 480, 2-amino-4-[1-(4-chlorophenoxyacetyl)piperid-4-ylamino]-6-(4-fluorophenyl)-pyrido[3,2-d]pyrimidine], the IC50 is 2200 nM.

As to `C[C@@H]1CN(C(=O)OC(C)(C)C)CCN1c1nc(N)nc2ccc(-c3ccc(F)cc3)nc12` [Example 481, (R)-4-[2-amino-6-(4-fluorophenyl)-pyrido[3,2-d]pyrimidin-4-yl]-3-methylpiperazine-1-carboxylic acid tert-butyl ester], the IC50 is above 10000 nM.

As to `C[C@@H]1CN(C(=O)COc2ccc(Cl)cc2)CCN1c1nc(N)nc2ccc(-c3ccc(F)cc3)nc12` [Example 482, (R)-2-amino-4-[4-(4-chlorophenoxyacetyl)-2-methylpiperazin-1-yl]-6-(4-fluorophenyl)-pyrido[3,2-d]pyrimidine], the IC50 was 500 nM.

On to `CC(C)(C)OC(=O)N1C[C@@H]2C[C@H]1CN2c1nc(N)nc2ccc(-c3ccc(F)cc3)nc12` [Example 483, (S,S)-5-[2-amino-6-(4-fluorophenyl)-pyrido[3,2-d]pyrimidin-4-yl]-2,5-diaza-bicyclo[2.2.1]heptane-2-carboxylic acid tert-butyl ester], for which the IC50 was determined as 6100 nM.

Turning to `Nc1nc(N2C[C@@H]3C[C@H]2CN3C(=O)COc2ccc(Cl)cc2)c2nc(-c3ccc(F)cc3)ccc2n1` [Example 484, (S,S)-1-{5-[2-amino-6-(4-fluorophenyl)-pyrido[3,2-d]pyrimidin-4-yl]-2,5-diaza-bicyclo[2.2.1]hept-2-yl}-2-(4-chlorophenoxy)-ethanone], the IC50 worked out at 2600 nM.

On to `Nc1nc(NC2CCN(C(=O)COc3ccccc3)CC2)c2nc(-c3ccc(F)cc3)ccc2n1` [Example 485, 2-amino-4-[1-(phenoxyacetyl)piperid-4-ylamino]-6-(4-fluorophenyl)-pyrido[3,2-d]pyrimidine], for which the IC50 turned out to be 300 nM.

Turning to `C[C@H]1CN(C(=O)OCc2ccccc2)CCN1c1nc(N)nc2ccc(-c3ccc(F)cc3)nc12` [Example 486, (S)-4-[2-amino-6-(4-fluorophenyl)-pyrido[3,2-d]pyrimidin-4-yl]-3-methylpiperazine-1-carboxylic acid benzyl ester], the half-maximal inhibitory concentration (IC50) was found to be 800 nM.

With `C[C@@H]1CN(C(=O)c2ccccc2)CCN1c1nc(N)nc2ccc(-c3ccc(F)cc3)nc12` [Example 487, (R)-2-amino-4-(4-benzoyl-2-methylpiperazin-1-yl)-6-(4-fluorophenyl)-pyrido[3,2-d]pyrimidine], the IC50 was 7500 nM.

`C[C@H]1CN(C(=O)COc2ccc(Cl)cc2)CCN1c1nc(N)nc2ccc(-c3ccc(F)cc3)nc12` [Example 489, (S)-2-amino-4-[4-(4-chlorophenoxyacetyl)-2-methylpiperazin-1-yl]-6-(4-fluorophenyl)-pyrido[3,2-d]pyrimidine]: the IC50 was found to be 5 nM.

In the case of `Nc1nc(N2CCN(C(=O)CC(=O)Nc3ccc(Cl)cc3)CC2)c2nc(-c3ccc(F)cc3)ccc2n1` [Example 490, 2-amino-4-[4-(4-chlorophenylcarbamoyl-acetyl)piperazin-1-yl]-6-(4-fluorophenyl)-pyrido[3,2-d]pyrimidine], the IC50 is 340 nM.

`Nc1nc(N2CCN(C(=O)COc3ccc(Cl)cc3)CC2)c2nc(Cl)ccc2n1` [Example 492, 2-amino-4-(N-(4-chlorophenoxyacetyl)-piperazin-1-yl)-6-chloro-pyrido[3,2-d]pyrimidine]: the concentration for half-maximal inhibition (IC50) was 80 nM.

In the case of `CCOc1ccc(-c2ccc3nc(N)nc(N4CCN(C(=O)COc5ccc(Cl)cc5)CC4)c3n2)cc1Cl` [Example 493, 2-amino-4-[N-(4-chlorophenoxyacetyl)-piperazin-1-yl]-6-(3-chloro-4-ethoxyphenyl)-pyrido(3,2-d)pyrimidine], the IC50 came to 57 nM.

For `CCOc1ccc(-c2ccc3nc(N)nc(N4CCN(C(=O)COc5ccc(Cl)cc5)CC4)c3n2)cc1` [Example 494, 2-amino-4-[N-(4-chlorophenoxyacetyl)-piperazin-1-yl]-6-(4-ethoxyphenyl)-pyrido(3,2-d)pyrimidine], the IC50 was determined as 33 nM.

`CSc1ccc(-c2ccc3nc(N)nc(N4CCN(C(=O)COc5ccc(Cl)cc5)CC4)c3n2)cc1` [Example 495, 2-amino-4-[N-(4-chlorophenoxyacetyl)-piperazin-1-yl]-6-(4-methylthiophenyl)-pyrido(3,2-d)pyrimidine]: the IC50 is 22 nM.

Turning to `COc1cc(-c2ccc3nc(N)nc(N4CCN(C(=O)COc5ccc(Cl)cc5)CC4)c3n2)ccc1O` [Example 496, 2-amino-4-[N-(4-chlorophenoxyacetyl)-piperazin-1-yl]-6-(3-methoxy-4-hydroxyphenyl)-pyrido(3,2-d)pyrimidine], the IC50 is 71 nM.

Consider `Nc1nc(N2CCN(C(=O)COc3ccc(Cl)cc3)CC2)c2nc(-c3ccc4c(c3)CCO4)ccc2n1` [Example 497, 2-amino-4-[N-(4-chlorophenoxyacetyl)-piperazin-1-yl]-6-(2,3-dihydro-1-benzofuran-5-yl)-pyrido(3,2-d)pyrimidine], for which the IC50 stood at 210 nM.

Regarding `Cc1cccc(-c2ccc3nc(N)nc(N4CCN(C(=O)COc5ccc(Cl)cc5)CC4)c3n2)c1` [Example 498, 2-amino-4-[N-(4-chlorophenoxyacetyl)-piperazin-1-yl]-6-(3-methyl-phenyl)-pyrido(3,2-d)pyrimidine], the half-inhibitory concentration (IC50) turned out to be 8 nM.

`N#CCc1ccc(-c2ccc3nc(N)nc(N4CCN(C(=O)COc5ccc(Cl)cc5)CC4)c3n2)cc1` [Example 499, 2-amino-4-[N-(4-chlorophenoxyacetyl)-piperazin-1-yl]-6-(4-cyanomethyl-phenyl)-pyrido(3,2-d)pyrimidine]: the IC50 was 11 nM.

With `COCc1cccc(-c2ccc3nc(N)nc(N4CCN(C(=O)COc5ccc(Cl)cc5)CC4)c3n2)c1` [Example 500, 2-amino-4-[N-(4-chlorophenoxyacetyl)-piperazin-1-yl]-6-(3-methoxy-methylphenyl)-pyrido(3,2-d)pyrimidine], the IC50 came to 31 nM.

As to `COc1cc(-c2ccc3nc(N)nc(N4CCN(C(=O)COc5ccc(Cl)cc5)CC4)c3n2)ccc1OCc1ccccc1` [Example 501, 2-amino-4-[N-(4-chlorophenoxyacetyl)-piperazin-1-yl]-6-(3-methoxy-4-benzyloxyphenyl)-pyrido(3,2-d)pyrimidine], the IC50 is above 10000 nM.

Take `COc1c(C)cc(-c2ccc3nc(N)nc(N4CCN(C(=O)COc5ccc(Cl)cc5)CC4)c3n2)cc1C` [Example 502, 2-amino-4-[N-(4-chlorophenoxyacetyl)-piperazin-1-yl]-6-(3,5-dimethyl-4-methoxyphenyl)-pyrido(3,2-d)pyrimidine]: the IC50 stood at 78 nM.

`N#CCOc1ccc(-c2ccc3nc(N)nc(N4CCN(C(=O)COc5ccc(Cl)cc5)CC4)c3n2)cc1` [Example 503, 2-amino-4-[N-(4-chlorophenoxyacetyl)-piperazin-1-yl]-6-(4-cyano-methoxyphenyl)-pyrido(3,2-d)pyrimidine]: the IC50 came out at 20 nM.

With `CC(=O)Oc1ccc(-c2ccc3nc(N)nc(N4CCN(C(=O)COc5ccc(Cl)cc5)CC4)c3n2)cc1` [Example 504, 2-amino-4-[N-(4-chlorophenoxyacetyl)-piperazin-1-yl]-6-(4-acetoxy-phenyl)-pyrido(3,2-d)pyrimidine], the IC50 is 50 nM.

For the molecule `COc1ccc(-c2ccc3nc(N)nc(N4CCN(C(=O)COc5ccc(Cl)cc5)CC4)c3n2)c(OC)c1` [Example 505, 2-amino-4-[N-(4-chlorophenoxyacetyl)-piperazin-1-yl]-6-(2,4-dimethoxyphenyl)-pyrido(3,2-d)pyrimidine], the IC50 stood at 72 nM.

In the case of `COc1ccc(OC)c(-c2ccc3nc(N)nc(N4CCN(C(=O)COc5ccc(Cl)cc5)CC4)c3n2)c1` [Example 506, 2-amino-4-[N-(4-chlorophenoxyacetyl)-piperazin-1-yl]-6-(2,5-dimethoxyphenyl)-pyrido(3,2-d)pyrimidine], the 50% inhibitory concentration (IC50) came out at 690 nM.
